Measurements: ChEMBL document CHEMBL1201862, “PubChem BioAssay data set” (2004)
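Values below derive from 48-hour exposures of cells grown in 96-well plates, with endpoints linearly interpolated between the two concentrations bracketing the appropriate inhibition level. Abbreviation: GI50, concentration required for 50% inhibition of growth.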 Activity calls are given as the source filed them. Rule as the data show it: active = GI50 up to about 1.1 µM and inactive = higher.

Legend:
Experiment in all cases: growth of human tumour cells (NCI), 48 h
LOX IMVI = tested on: LOX IMVI
KM12 = tested on: KM12
SNB-19 = tested on: SNB-19
SW-620 = tested on: SW-620
TK-10 = tested on: TK-10
ACHN = tested on: ACHN
OVCAR-5 = tested on: OVCAR-5
SK-MEL-5 = tested on: SK-MEL-5
RXF 393 = tested on: RXF 393
SK-MEL-28 = tested on: SK-MEL-28
UACC-257 = tested on: UACC-257
OVCAR-8 = tested on: OVCAR-8
SK-MEL-2 = tested on: SK-MEL-2
K562 = tested on: K562
NCI-H226 = tested on: NCI-H226

Measured: GI50

Nc1ccc(O)c2c1C(=O)c1c(N)ccc(O)c1C2=O
inactive: LOX IMVI > 100 µM | KM12 > 100 µM | SNB-19 > 100 µM | SW-620 > 100 µM | TK-10 > 100 µM | ACHN > 100 µM | OVCAR-5 > 100 µM | SK-MEL-5 > 100 µM | RXF 393 > 100 µM | SK-MEL-28 > 100 µM | UACC-257 > 100 µM | OVCAR-8 > 100 µM | SK-MEL-2 > 100 µM | K562 > 100 µM

COC(=O)C1CC(C(=O)OC)c2nc3cc(C)c(C)cc3nc21 (configuration not stated)
inactive: LOX IMVI > 100 µM | KM12 > 100 µM | SNB-19 > 100 µM | SW-620 > 100 µM | TK-10 > 100 µM | ACHN > 100 µM | OVCAR-5 > 100 µM | SK-MEL-5 > 100 µM | SK-MEL-28 > 100 µM | UACC-257 > 100 µM | OVCAR-8 > 100 µM | SK-MEL-2 > 100 µM | NCI-H226 > 100 µM | K562 > 100 µM

COC(=O)C1=CCON(c2ccccc2)C1c1ccccc1 (configuration not stated)
inactive: LOX IMVI 47.1 µM | KM12 45 µM | SNB-19 62.8 µM | SW-620 70.5 µM | TK-10 44.9 µM | ACHN 57 µM | OVCAR-5 94.2 µM | RXF 393 48 µM | SK-MEL-28 43.5 µM | SK-MEL-2 65.8 µM | NCI-H226 93.8 µM | K562 40.4 µM

COc1cc2nc(-c3cccc(N(C)C)c3)cc(O)c2cc1OC
inactive: LOX IMVI 6.79 µM | KM12 3.31 µM | SNB-19 4.98 µM | SW-620 4.09 µM | TK-10 > 100 µM | ACHN 14.5 µM | OVCAR-5 5.18 µM | SK-MEL-5 4.36 µM | RXF 393 2.21 µM | UACC-257 5.28 µM | OVCAR-8 6.03 µM | NCI-H226 3.58 µM | K562 3.62 µM

CCOc1ccccc1/N=N/c1ccc2oc(=O)c(C(C)=O)cc2c1
inactive: LOX IMVI > 100 µM | KM12 > 100 µM | SNB-19 55.5 µM | SW-620 > 100 µM | TK-10 30.5 µM | OVCAR-5 > 100 µM | SK-MEL-5 > 100 µM | SK-MEL-28 > 100 µM | UACC-257 > 100 µM | OVCAR-8 > 100 µM | SK-MEL-2 71 µM | K562 > 100 µM

Cc1cc(Cl)ccc1NC1=NC(=O)C(CC(=O)Nc2ccc(Cl)cc2Cl)S1 (configuration not stated)
inactive: LOX IMVI > 100 µM | KM12 > 100 µM | SNB-19 > 100 µM | SW-620 > 100 µM | TK-10 > 100 µM | ACHN > 100 µM | OVCAR-5 > 100 µM | SK-MEL-5 > 100 µM | SK-MEL-28 > 100 µM | UACC-257 > 100 µM | OVCAR-8 > 100 µM | SK-MEL-2 > 100 µM | K562 > 100 µM

CC1CC(=O)C(CC(=O)O)[C@H]1C(C(=O)C(=O)Nc1cc(Cl)ccc1Cl)[N+](=O)[O-] (some centres not stated)
inactive: LOX IMVI > 100 µM | KM12 > 100 µM | SNB-19 > 100 µM | SW-620 > 100 µM | TK-10 > 100 µM | ACHN > 100 µM | OVCAR-5 > 100 µM | SK-MEL-5 > 100 µM | RXF 393 > 100 µM | SK-MEL-28 > 100 µM | OVCAR-8 > 100 µM | NCI-H226 > 100 µM | K562 > 100 µM

O=C1CCC2(c3ccccc3)OCC([C@@H](O)c3ccccc3)N12 (some centres not stated)
inactive: LOX IMVI > 100 µM | KM12 > 100 µM | SNB-19 > 100 µM | SW-620 > 100 µM | TK-10 > 100 µM | ACHN > 100 µM | OVCAR-5 > 100 µM | SK-MEL-5 > 100 µM | RXF 393 > 100 µM | SK-MEL-28 > 100 µM | UACC-257 > 100 µM | OVCAR-8 > 100 µM | SK-MEL-2 > 100 µM | K562 > 100 µM

O=C1C2=C(c3ccccc31)C(c1ccccc1)NC(S)=N2 (configuration not stated)
inactive: KM12 41.9 µM | SNB-19 38 µM | SW-620 31 µM | TK-10 > 100 µM | ACHN > 100 µM | OVCAR-5 > 100 µM | SK-MEL-5 54.8 µM | SK-MEL-28 49.1 µM | UACC-257 > 100 µM | OVCAR-8 35.2 µM | SK-MEL-2 84.1 µM | NCI-H226 > 100 µM | K562 22.3 µM

C[N+](C)(C)CC1CCCC/C1=N\O (configuration not stated)
inactive: LOX IMVI > 100 µM | KM12 > 100 µM | SNB-19 > 100 µM | SW-620 > 100 µM | TK-10 > 100 µM | ACHN > 100 µM | OVCAR-5 > 100 µM | RXF 393 > 100 µM | SK-MEL-28 > 100 µM | UACC-257 > 100 µM | OVCAR-8 > 100 µM | SK-MEL-2 > 100 µM | K562 > 100 µM

O=C1C2=C(c3ccccc31)C(c1ccc([N+](=O)[O-])cc1)NC(S)=N2 (configuration not stated)
inactive: KM12 87.7 µM | SNB-19 97.3 µM | SW-620 81.1 µM | TK-10 > 100 µM | ACHN 70 µM | OVCAR-5 > 100 µM | SK-MEL-5 27.4 µM | SK-MEL-28 59.3 µM | UACC-257 > 100 µM | OVCAR-8 > 10 µM | SK-MEL-2 96.8 µM | NCI-H226 19.2 µM | K562 49.1 µM

O=[N+]([O-])c1cc(-c2nnc(S)[nH]2)ccc1O
inactive: LOX IMVI > 100 µM | KM12 > 100 µM | SNB-19 > 100 µM | SW-620 4.06 µM | TK-10 > 100 µM | ACHN > 100 µM | OVCAR-5 > 100 µM | SK-MEL-5 > 100 µM | RXF 393 > 100 µM | SK-MEL-28 > 100 µM | UACC-257 > 100 µM | SK-MEL-2 > 100 µM | K562 > 100 µM

N#CNc1nc(C(=O)Nc2ccc(Cl)cc2)cc(-c2ccccc2)n1
inactive: KM12 > 100 µM | SNB-19 > 100 µM | SW-620 > 100 µM | ACHN > 100 µM | OVCAR-5 > 100 µM | SK-MEL-5 > 100 µM | RXF 393 > 100 µM | SK-MEL-28 > 100 µM | UACC-257 > 100 µM | OVCAR-8 > 100 µM | SK-MEL-2 > 100 µM | NCI-H226 > 100 µM | K562 > 100 µM

O=C(O)C1OC(Oc2cc(O)c3c(=O)cc(-c4ccc(O)cc4)oc3c2)C(O)C(O)C1O (configuration not stated)
inactive: LOX IMVI > 100 µM | KM12 > 100 µM | SNB-19 > 100 µM | SW-620 > 100 µM | TK-10 > 100 µM | ACHN > 100 µM | OVCAR-5 > 100 µM | SK-MEL-5 > 100 µM | SK-MEL-28 > 100 µM | UACC-257 > 100 µM | OVCAR-8 > 100 µM | SK-MEL-2 > 100 µM | NCI-H226 > 100 µM

COc1ccc2nc(-c3cccs3)cc(C(O)CN3CCSCC3)c2c1 (configuration not stated)
inactive: LOX IMVI 16.5 µM | KM12 22.3 µM | SNB-19 29.2 µM | SW-620 30.7 µM | TK-10 31.2 µM | ACHN 13.5 µM | OVCAR-5 19.2 µM | SK-MEL-5 16.4 µM | RXF 393 45 µM | SK-MEL-28 24.9 µM | UACC-257 21.2 µM | OVCAR-8 16.6 µM | SK-MEL-2 17 µM | K562 12.9 µM
